From patent publication US6544789B1, “Phosphorus-controllable recombinant expression of polypeptides in plants” (Board of Trustees, Rutgers, The State University of New …, priority 2000, dated 2003)

Columns and labels:
[1] = system: APase promoter; assay: GUS expression in Pr-GUS transformants grown in sand culture (specificity of APase promoter induction); assay type: in vivo, Arabidopsis thaliana; design: key to relative GUS expression: “−” (lowest); “+/−,”; “+,”; “++,”; “+++” (highest); conditions: for relative GUS expression: 100 μM, 14-day-old seedlings
Experimental: A screening method was developed to evaluate GUS expression levels in the various transformed lines: T2 seedlings were germinated in pots containing fine granules of washed sand (40-100 mesh Fisher Scientific, Pittsburgh, Pa.). To remove trace amounts of contaminating elements, the sand was previously washed by soaking it in 0.1 M HCl for 45 minutes and then washing it extensively with ddH2O until the sand mixture reached pH 6.5. Seedlings were grown in standard phosphorus medium for 14 days before transfer to phosphorus-deficient medium. GUS expression in plants subjected to phosphorus-deficient conditions for 14 days is shown in FIGS. 4A-4D (FIG. 4A—lateral root primordium with localized GUS expression, FIG. 4B—GUS expression in several cell layers of lateral root primordium; FIG. 4C—emerging lateral root meristem; FIG. 4D—lateral root meristems (LRM) and an apical root meristem (ARM)). Seedlings were also germinated in pots containing washed sand, and then fertilized using 0.25×Hoagland's medium with or without phosphorus (0.25 mM), and examined after 10 days. GUS expression in the roots of these seedlings (FIG. 4F) or in the whole seedlings (FIG. 4G—not starved; FIG. 4H—starved) is shown. Phosphorus starvation symptoms were evident 8 days after sowing. Plant expression was examined by staining with x-gluc (i.e., 5-bromo-4-chloro-3-indolyl β-D-glucuronide), as described below, to evaluate GUS expression.
GUS activity was determined according to the method of Jefferson et al., EMBO J. 6:3901-3907 (1987). After staining, tissue was fixed in 1.5% formaldehyde-4% acetic acid-30% ethanol for 30 minutes, dehydrated through a graded ethanol series (50, 95, 100% for 20 minutes at each step), incubated 2 hours at 100% ethanol, and rehydrated through a graded ethanol series (95 and 50%, for 20 minutes each step). Rehydrated tissues were stored in H2O.
Pr-GUS transformants, germinated and grown in sand culture, were used to test the specificity of APase promoter induction by either inducing nutritional deficiencies other than P-limitation or by using such known chemical inducers of gene expression as salicylic acid (Ward et al., Plant Cell 3:1085-1094 (1991)) and jasmonic acids (Staswick, et al., Plant Physiol 96:130-136 (1991), Creelman et al., New Phytol. 75:479-490 (1992)) (Tables 1 and 2). Seedlings were germinated in pots containing washed sand and fertilized with modified 0.25×Hoagland's medium optionally lacking nitrogen (N), potassium (K), or iron (Fe). Nitrogen-free Hoagland's medium was prepared by substituting K2HPO4 for (NH4)2SO4, CaSO4 for Ca(NO3)2 and K2SO4 for KNO3. Potassium-free Hoagland's medium was prepared by substituting NaNO3 for KNO3. Iron deficient medium was prepared by removing Fe-EDTA from the medium composition. Aqueous solutions of salicylic acid (SA), jasmonic acid (JA), and mannose were supplied to 14-day-old seedlings by spraying until solutions ran off the seedlings; approximately 20 ml of 2.5-fold concentrated solution was added to the sand at the same time.
Both chemical inducers were applied at concentrations capable of strongly inducing a variety of plant genes. These treatments were compared to the effects of P removal (Table 1, where “P” is phosphorus, N is nitrogen, K is potassium, and Fe is iron, “+” indicates presence and “−” indicates absence, and relative expression is indicated on a scale of “−” (lowest), “+/−,” “+,” “++,” to “+++” (highest)) or the addition of mannose (Table 2, where is indicated on a scale of “−” (lowest), “+/−,” “+,” “++,” to “+++” (highest)). Mannose is known to induce P deficiency in plant cells by virtue of its ability to bind cellular phosphates as mannose 6-phosphate (Watkins, et al., Plant Physiol. 97:139-146 (1987)), thereby acting as an agent that associates with a phosphorus compound. […] Seventeen days after sowing, the experiment was terminated.

[2] = system: acid phosphatase (APase); assay: APase activity in growth medium of B. juncea plants (p-NPP substrate, 410 nm); assay type: in vivo, Brassica juncea; conditions: after 6 days incubation
Experimental: Expression and secretion studies of B. juncea began with the germination of B. juncea seeds in Petri dishes on Gamborg's B-5 (Life Technologies, Gibco BRL, Grand Island, N.Y.) agar medium. Germinated seedlings were then transferred to 20 ml vials containing one-quarter-strength Hoagland's solution (Arnon et al., Soil Sci. 50:463-483 (1940)). Plants were grown in shaker-incubators (25 rpm), at 24° C. under a 16-hour photoperiod, with 150 mE/m^2/s illumination provided by a mixture of fluorescent and incandescent lamps. After 10 days, plants were transferred into 125 ml flasks with 120 ml of 0.25×Hoagland solution containing one of the following concentrations of phosphorus: 3 mM, 1 mM, 0.25 mM or 0.01 mM (i.e., phosphorus deficiency). In the low phosphorus medium, (NH4)2SO4 was substituted for NH4H2PO4. The volume of medium in each flask was adjusted daily to 120 ml and the exudate-containing media were sampled for APase activity.
Unconcentrated media samples were subjected to chromogenic determination at 410 nm. The activity of APase in the growth medium was determined using p-nitrophenyl-1-phosphate (p-NPP, Sigma Chemical Co., St. Louis, Mo.) as substrate and 50 mM Na-acetate buffer, pH 4.6, in a water bath at 37° C. (Ascencio, J., J. Plant Nutr. 20:9-26 (1997)). The reaction was stopped after 1 hour with a 1 M Na2CO3 solution and the yellow p-nitrophenol (PNP) was measured at 410 nm in a DU 640 Spectrophotometer (Beckman Instruments, Columbia, Md.). […] Thus, expression of the exuded A. thaliana APase was de-repressed by phosphorus starvation.

| Structure (SMILES) | expression of GUS on addition of phosphorus to the medium ([1]; phosphorus-starved plants) | APase activity in exudate-containing medium ([2]; 0.01 mM phosphorus) | APase activity in exudate-containing medium ([2]; 0.25 mM phosphorus) | APase activity in exudate-containing medium ([2]; 1 mM phosphorus) | APase activity in exudate-containing medium ([2]; 3 mM phosphorus) | relative GUS expression ([1]; 1 day after treatment) | relative GUS expression ([1]; 3 days after treatment) | relative GUS expression ([1]; 5 days after treatment) | relative GUS expression ([1]; 7 days after treatment) |
| --- | --- | --- | --- | --- | --- | --- | --- | --- | --- |
| [P] [phosphorus] | diminished | ~0.33 A410/(ml-hour) | ~0.21 A410/(ml-hour) | ~0.09 A410/(ml-hour) | approximately 0.04 A410/(ml-hour) |  |  |  |  |
| O=C(O)c1ccccc1O [salicylic acid] |  |  |  |  |  | − | + | − | +/− |
| CC/C=C\C[C@H]1C(=O)CC[C@@H]1CC(=O)O [jasmonic acid] |  |  |  |  |  | − | − | − | − |
